Holding throughout (test): NCI tumour cell line growth inhibition, 48 h
Experiment [1] has as its system ACHN renal.
Experiment [2] has as its system MDA-MB-435.
Experiment [3] relates to UO-31 renal.
The subject of experiment [4] is SF-295 CNS.
Experiment [5] concerns UACC-62 melanoma.
In experiment [6] the test system is COLO 205 colon.
Experiment [7] relates to HCC-2998 colon.
For experiment [8], the system named is MALME-3M melanoma.
Experiment [9] concerns OVCAR-3 ovarian.
Experiment [10] deals with HOP-62 NSCLC.

The values that follow come from PubChem BioAssay (NCI).

SMILES strings stand for the structures. Where “and” joins values, the source holds several entries; their conditions need not be identical. Equal entries are not always repeated.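 Results reflect a 48-hour exposure of cells in 96-well plates to compound at five concentrations. GI50 = concentration required for 50% inhibition of growth. TGI marks complete inhibition of growth.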

`COc1cc(C(=O)/C=C/c2c(C)n([O-])c3ccc(Cl)cc3[n+]2=O)cc(OC)c1OC`: the GI50 in [1] was 4.37 µM; in experiment [2], 3.4 µM; in experiment [3] it was 1.82 µM; in experiment [4] it was 99.4 µM; in experiment [5], 3.87 µM; in [6] it was 1.53 µM. In addition, the GI50 was 12.8 µM in [7], 36.3 µM in [8], 1.76 µM in experiment [9] and 21.6 µM in experiment [10]. The TGI is 18 µM in experiment [1]; above 100 µM in experiment [2]; 18.1 µM in experiment [3]; above 100 µM in experiment [4]; 23.1 µM in experiment [5]; 4.54 µM in experiment [6]. In addition, the TGI in experiment [7] was 38.7 µM; in experiment [8] it was above 100 µM; in [9], 7.98 µM; in experiment [10], 71 µM.
Regarding `c1ccc(-c2nc3ccccc3[nH]2)c(OCCCCCOc2ccccc2-c2nc3ccccc3[nH]2)c1`, the GI50 in [1] is 13.1 µM; in [2] it was 11.3 µM; in [3], 11 µM; in [4], 15.3 µM; in experiment [5], 12.8 µM; in [6], 8.49 µM. The GI50 is 16.1 µM in [7], 12.3 µM in experiment [8], 12 µM in experiment [9] and 22.1 µM in experiment [10]. Moreover, the TGI in experiment [1] came to 26.9 µM; in [2] it was 29.3 µM; in experiment [3], 36 µM; in experiment [4], 41.2 µM; in experiment [5], 27.6 µM; in experiment [6] it was 31.9 µM. Besides, the TGI in [7] was 67.2 µM; in [8], 44 µM; in experiment [9] it was 24.7 µM; in experiment [10], 52.5 µM.
Regarding `COc1ccc(C2=NOC3=c4ccccc4=CSC3=C2c2ccccc2)cc1`, the GI50 in experiment [1] was 73.7 µM; in experiment [2], 42.9 µM; in experiment [3], 39.2 µM; in experiment [4], 48.9 µM; in [5], 22 µM; in [6], 48.7 µM. For the same molecule, the GI50 in experiment [7] is above 100 µM; in experiment [8], 43.7 µM; in [9], 25 µM; in [10], 17.3 µM. Moreover, the TGI in experiment [1] was above 100 µM; in experiment [2] it was above 100 µM; in experiment [3], above 100 µM; in experiment [4], above 100 µM; in experiment [5], 85 µM; in experiment [6], above 100 µM. The TGI in [7] was above 100 µM; in [8], above 100 µM; in experiment [9] it was 79.5 µM; in experiment [10] it was above 100 µM.
Take `CCCCCCCC(=O)OC[n+]1cccc(-c2c(COC(=O)NC(C)C)c(COC(=O)NC(C)C)c3n2CCC3)c1`: the TGI in [1], in [2], in [3], in experiment [4], in [5] and in [6] was above 100 µM each time. For the same molecule, the TGI in experiment [7], in experiment [8], in experiment [9] and in experiment [10] was above 100 µM throughout.
As for `COc1ccc2cc1Oc1ccc(cc1)CC1c3c(cc(OC)c4c3Oc3cc5c(cc3O4)CCNC5C2)CCN1C` (configuration not stated), the GI50 is 1.49 µM in experiment [1]; 1.56 µM in [2]; 1.67 µM in experiment [3]; 1.8 µM in experiment [4]; 1.2 µM in [7]; 1.62 µM in experiment [9]. Further, the GI50 in experiment [10] is 1.59 µM. Further, the TGI in [1] was 4.01 µM and 2.81 µM; in experiment [2], 3.43 µM and 2.9 µM; in [3] it was 30.7 µM and 3.13 µM; in [4] it was 3.42 µM and 3.23 µM; in experiment [5] it was 3.43 µM; in [6], 3.41 µM. For the same molecule, the TGI in [7] was 2.53 µM and 2.5 µM; in [8], 3.68 µM; in experiment [9] it was 7.41 µM and 3.07 µM; in experiment [10] it was 5.06 µM and 2.95 µM.
Consider `COc1ccc(-c2nn(-c3cccc(Cl)c3)cc2-c2c(C#N)c(=O)n3[nH]c(-c4ccc(C)o4)nc3c2C#N)cc1`, for which the GI50 in experiment [1] is 7.61 µM; in [2], 4.44 µM; in [3], 1.8 µM; in experiment [4], 3.46 µM; in [5], 6.46 µM; in [6], 5.47 µM. For the same molecule, the GI50 is 7.43 µM in experiment [7], 7.88 µM in [8], 5.68 µM in [9] and 14.1 µM in experiment [10]. The TGI in experiment [1] is above 50 µM; in experiment [2] it was 30.1 µM; in experiment [3], 38.9 µM; in [4], above 50 µM; in [5], 42.7 µM; in experiment [6], 11.6 µM. The TGI in experiment [7] was 45.7 µM; in [8], 41.1 µM; in experiment [9], 19 µM; in experiment [10], above 50 µM.
Regarding `CC(C)(C)OC(=O)CC(S(=O)(=O)c1ccccc1)S(=O)(=O)c1ccccc1`, the GI50 in experiment [1] is 1.75 µM; in experiment [2] it was 13.8 µM; in experiment [3] it was 2.9 µM; in experiment [4], above 100 µM; in [5], 11.4 µM; in [6] it was 1.89 µM. Moreover, the GI50 in experiment [7] was 16 µM; in [8] it was 2.08 µM; in experiment [9] it was 1.88 µM; in [10], 19.1 µM. In addition, the TGI is 3.19 µM in [1]; 26.7 µM in experiment [2]; 10.4 µM in experiment [3]; above 100 µM in experiment [4]; 24.1 µM in experiment [5]; 3.32 µM in experiment [6]. Besides, the TGI in experiment [7] was determined as 29.6 µM; in experiment [8], 4.36 µM; in experiment [9], 3.29 µM; in experiment [10], 35.4 µM.
Regarding `O=[N+]([O-])/C(=C/C=C/c1ccccc1)c1ccccc1`, the GI50 is 2.14 µM in experiment [1]; 2.12 µM in experiment [2]; 1.46 µM in experiment [3]; 2.56 µM in [4]; 1.55 µM in experiment [5]; 1.83 µM in experiment [6]. Further, the GI50 in [7] was 1.92 µM; in experiment [8], 1.84 µM; in experiment [9], 1.85 µM; in experiment [10], 7.29 µM. The TGI in experiment [1] amounted to 5 µM; in [2], 4.92 µM; in [3], 3.19 µM; in experiment [4], 9.08 µM; in experiment [5], 3.1 µM; in experiment [6], 3.35 µM. The TGI turned out to be 4.14 µM in experiment [7], 5.4 µM in experiment [8], 3.29 µM in [9] and 21.4 µM in experiment [10].
